pEC50, pIC50, pKi: −log10 of the molar value. Calls of active or inactive are those of the source. The calls are words filed in the database; no cut-off is given here.
Key:
[1] = target: T1, Epidermal growth factor receptor (Homo sapiens, UniProt P00533); format: ADME
[2] = target: T2, Epidermal growth factor receptor (Homo sapiens, UniProt P00533, L858R)
[3] = target: T3, Epidermal growth factor receptor (Homo sapiens, UniProt P00533, L858R/T790M)
[4] = target: T1, Epidermal growth factor receptor; experiment: Inhibition of wild-type EGFR in human A431 cells assessed as reduction in cell viability after 96 hrs by CellTiterGlo assay; format: ADME, cell-based
[5] = Inhibition of KRAS mutant in human A431 cells assessed as reduction in cell viability after 96 hrs by CellTiterGlo assay; format: cell-based; details: A-431, 96 h
[6] = Inhibition of KRAS mutant in human H358 cells assessed as reduction in cell viability after 96 hrs by CellTiterGlo assay; format: cell-based; details: NCI-H358, 96 h
[7] = test system: Epidermal growth factor receptor (Homo sapiens), P00533 [T790M]; experiment: Binding affinity to EGFR T790M mutant (unknown origin) assessed as covalent adduct formation at 100 uM after 1 hr by ESI-MS analysis
[8] = target: T1, Epidermal growth factor receptor; experiment: Ratio of Kinact to Ki for reversible inhibition of wild-type human N-terminal GST-tagged EGFR cytoplasmic domain (669 to 1210 end amino acid residues) expressed in baculovirus expression system
[9] = test system: Epidermal growth factor receptor (Homo sapiens), P00533 [L858R,T790M,C797S]; experiment: Inhibition of EGFR L858R/T790M/C797S triple mutant (unknown origin) by HTRF assay
[10] = test system: Liver; experiment: Stability in human liver microsomes at 3 uM up to 50 mins by LCMS analysis; format: ADME, microsome
[11] = test system: Liver; experiment: Stability in mouse liver microsomes at 3 uM up to 50 mins by LCMS analysis; format: ADME, microsome
[12] = Stability in human plasma assessed as compound remaining at 5 uM after 1 hr by LCMS analysis; format: ADME, cell-free; details: read-out: Stability
[13] = Stability in mouse plasma assessed as compound remaining at 5 uM after 1 hr by LCMS analysis; format: ADME, cell-free; details: read-out: Stability
[14] = target: T1, Epidermal growth factor receptor; experiment: Reversible inhibition of wild-type human N-terminal GST-tagged EGFR cytoplasmic domain (669 to 1210 end amino acid residues) expressed in baculovirus expression system using TK peptide substrate preincubated for 2 to 90 mins followed by 6-fold dilution
[15] = target: T2, Epidermal growth factor receptor; experiment: (§1) Reversible inhibition of human N-terminal GST-tagged EGFR L858R mutant cytoplasmic domain (669 to 1210 end amino acid residues) expressed in baculovirus expression system using TK peptide substrate preincubated for 2 to 90 mins followed by 6-fold dilution
[16] = target: T3, Epidermal growth factor receptor; experiment: Reversible inhibition of human N-terminal GST-tagged EGFR L858R/T790M double mutant cytoplasmic domain (669 to 1210 end amino acid residues) expressed in baculovirus expression system using TK peptide substrate preincubated for 2 to 90 mins followed by 6-fold dilution
[17] = target: T1, Epidermal growth factor receptor; experiment: Reversible inhibition of wild-type human N-terminal GST-tagged EGFR cytoplasmic domain (669 to 1210 end amino acid residues) expressed in baculovirus expression system using TK peptide substrate assessed as inactivation constant preincubated for 2 to 90 mins followed by 6-fold dilution
[18] = test system: Epidermal growth factor receptor (Homo sapiens), P00533 [L858R,T790M]; experiment: (§2) Inhibition of EGF-induced EGFR L858R/T790M double mutant phosphorylation in human NCI-H1975 cells pre-incubated for 1 hr followed by EGF stimulation for 30 mins by Western blot analysis; format: cell-based
[19] = target: T3, Epidermal growth factor receptor; experiment: as §2; format: cell-based
[20] = test system: Epidermal growth factor receptor (Homo sapiens), P00533 [L858R,T790M]; experiment: Inhibition of EGFR L858R/T790M double mutant in human NCI-H1975 cells assessed as reduction in EGF-induced Akt phosphorylation at S473 at 0.1 to 10 uM pre-incubated for 1 hr followed by EGF stimulation for 30 mins by Western blot analysis; format: cell-based
[21] = target: T1, Epidermal growth factor receptor; experiment: Inhibition of EGF-induced wild-type EGFR phosphorylation in human A431 cells at 10 uM pre-incubated for 1 hr followed by EGF stimulation for 30 mins by Western blot analysis; format: cell-based; details: 0.5 h
[22] = test system: Epidermal growth factor receptor (Homo sapiens), P00533 [L858R]
[23] = test system: Epidermal growth factor receptor (Homo sapiens), P00533 [L858R,T790M]
[24] = test system: Epidermal growth factor receptor (Homo sapiens), P00533 [L858R]; experiment: as §1
[25] = Ratio of EC50 for wild-type EGFR in human A431 cells to EC50 for EGFR delE746_A750 mutant in human HCC827 cells
[26] = Ratio of EC50 for wild-type EGFR in human A431 cells to EC50 for EGFR L858R/T790M double mutant in human NCI-H1975 cells
[27] = Ratio of IC50 for wild-type human N-terminal GST-tagged EGFR cytoplasmic domain (669 to 1210 end amino acid residues) expressed in baculovirus expression system to IC50 for human N-terminal GST-tagged EGFR L858R/T790M double mutant cytoplasmic domain (669 to 1210 end amino acid residues) expressed in baculovirus expression system
[28] = target: T3, Epidermal growth factor receptor; experiment: Inhibition of EGFR L858R/T790M double mutant in human NCI-H1975 cells assessed as reduction in EGF-induced Akt phosphorylation at S473 pre-incubated for 1 hr followed by EGF stimulation for 30 mins by Western blot analysis; format: cell-based
[29] = target: T1, Epidermal growth factor receptor; experiment: Inhibition of EGF-induced wild-type EGFR phosphorylation in human A431 cells pre-incubated for 1 hr followed by EGF stimulation for 30 mins by Western blot analysis; format: cell-based
[30] = target: T1, Epidermal growth factor receptor; experiment: Inhibition of wild-type EGFR in human A431 cells assessed as reduction in EGF-induced Akt phosphorylation at S473 pre-incubated for 1 hr followed by EGF stimulation for 30 mins by Western blot analysis; format: cell-based

C=CC(=O)Nc1cc(Nc2n[nH]c3ccccc23)c(OC)cc1N(C)CCN(C)C
pIC50 [1]: 5.03 | pIC50 [2]: 5.47 | pIC50 [3]: 6.34 | pEC50 [4]: 4.98

C=CC(=O)Nc1cc(Nc2n[nH]c3cc(-c4cn(C)c5ccccc45)ccc23)c(OC)cc1N(C)CCN(C)C
pIC50 [1]: 8.03 | pIC50 [2]: 8.82 | pIC50 [3]: 8.32 | pEC50 [4]: 5.66 | pEC50 [5]: 5.68 | pEC50 [6]: 5.59 | Activity [7]: Active | kinact/KI [8]: 20000 M⁻¹ s⁻¹ | inhibition [9]: inactive | Stability [10]: Stable | Stability [11]: Stable | remaining at 1 h, 5 µM [12]: > 75% | remaining at 1 h, 5 µM [13]: > 90% | pKi [14]: 6.63 | pKi [15]: 7.24 | pKi [16]: 6.83 | kinact [17]: 0.00467 s⁻¹ | inhibition [18]: Dose-dependent effect | pEC50 [19]: 6.00 to 7.00 | inhibition [20]: Active | inhibition (INH) [21]: Active | Kinact [22]: 0.14 min⁻¹ | Kinact [23]: 0.37 min⁻¹

CCC(=O)Nc1cc(Nc2n[nH]c3ccccc23)ccc1N(C)CCN(C)C
pIC50 [1]: < 5.00 | pIC50 [2]: 5.07 | pIC50 [3]: 5.01 | pEC50 [4]: < 4.52

C=CC(=O)Nc1cc(Nc2n[nH]c3cc(-c4cccc(N(C)C)c4)ccc23)c(OC)cc1N(C)CCN(C)C
pIC50 [1]: 7.32 | pIC50 [2]: 8.00 | pIC50 [3]: 7.66 | pEC50 [4]: 5.46

C=CC(=O)Nc1cc(Nc2n[nH]c3cc(-c4ccncc4)ccc23)c(OC)cc1N(C)CCN(C)C
pIC50 [1]: 7.52 | pIC50 [2]: 7.85 | pIC50 [3]: 8.30 | pEC50 [4]: 5.40 | Activity [7]: Active | inhibition [9]: inactive | Stability [10]: Stable | Stability [11]: Stable | remaining at 1 h, 5 µM [12]: > 75% | remaining at 1 h, 5 µM [13]: > 90% | inhibition [24]: Active

C=CC(=O)Nc1cc(Nc2n[nH]c3ccc(-c4cccc5ccccc45)cc23)c(OC)cc1N(C)CCN(C)C
pIC50 [1]: 7.48 | pIC50 [2]: 7.92 | pIC50 [3]: 8.57 | pEC50 [4]: 5.56

C=CC(=O)Nc1cc(Nc2n[nH]c3cc(-c4ccc(N(C)C)cc4)ccc23)c(OC)cc1N(C)CCN(C)C
pIC50 [1]: 6.41 | pIC50 [2]: 7.10 | pIC50 [3]: 7.14 | pEC50 [4]: 5.85

C=CC(=O)Nc1cc(Nc2n[nH]c3cc(-c4cccc(F)c4)ccc23)c(OC)cc1N(C)CCN(C)C
pIC50 [1]: 8.30 | pIC50 [2]: 8.80 | pIC50 [3]: 8.30 | pEC50 [4]: 5.64

C=CC(=O)Nc1cc(Nc2n[nH]c3cc(-c4cncc5ccccc45)ccc23)c(OC)cc1N(C)CCN(C)C
pIC50 [1]: 8.55 | pIC50 [2]: 8.96 | pIC50 [3]: 8.22 | pEC50 [4]: 5.55 | pEC50 [5]: 6.18

C=CC(=O)Nc1cc(Nc2n[nH]c3ccccc23)ccc1N(C)CCN(C)C
pIC50 [1]: < 5.00 | pIC50 [2]: < 5.00 | pIC50 [3]: 5.58 | pEC50 [4]: 5.22

C=CC(=O)Nc1cc(Nc2n[nH]c3ccc(-c4ccc(F)cc4)cc23)c(OC)cc1N(C)CCN(C)C
Ratio EC50 [25]: 3 - 4 | pIC50 [1]: 8.17 | pIC50 [2]: 8.70 | pIC50 [3]: > 9.00 | pEC50 [4]: 5.68 | Activity [7]: Active | inhibition [9]: inactive | Stability [10]: Stable | Stability [11]: Stable | remaining at 1 h, 5 µM [12]: > 75% | remaining at 1 h, 5 µM [13]: > 90% | inhibition [24]: Active | Ratio EC50 [26]: 3 - 4 | inhibition [18]: Dose-dependent effect | pEC50 [19]: 6.00 to 7.00 | inhibition [20]: Active | inhibition (INH) [21]: Active

C=CC(=O)Nc1cc(Nc2n[nH]c3cc(-c4cccnc4)ccc23)c(OC)cc1N(C)CCN(C)C
pIC50 [1]: 7.01 | pIC50 [2]: 7.54 | pIC50 [3]: 7.82 | pEC50 [4]: 5.25

C=CC(=O)Nc1cc(Nc2n[nH]c3cc(-c4cccc(C(F)(F)F)c4)ccc23)c(OC)cc1N(C)CCN(C)C
pIC50 [1]: 7.80 | pIC50 [2]: 8.35 | pIC50 [3]: 7.42 | pEC50 [4]: 5.45

C=CC(=O)Nc1cc(Nc2n[nH]c3cc(-c4ccc(F)cc4)ccc23)c(OC)cc1N(C)CCN(C)C
pIC50 [1]: 7.59 | pIC50 [2]: 8.07 | pIC50 [3]: 8.00 | pEC50 [4]: 5.66

CCC(=O)Nc1cc(Nc2n[nH]c3ccccc23)c(OC)cc1N(C)CCN(C)C
pIC50 [1]: < 5.00 | pIC50 [2]: < 5.00 | pIC50 [3]: < 5.00 | pEC50 [4]: < 4.52

C=CC(=O)Nc1cc(Nc2n[nH]c3cc(-c4ccc5ccccc5c4)ccc23)c(OC)cc1N(C)CCN(C)C
pIC50 [1]: 6.51 | pIC50 [2]: 7.60 | pIC50 [3]: 7.07 | pEC50 [4]: 5.78

C=CC(=O)Nc1cc(Nc2n[nH]c3ccc(-c4ccc5ccccc5c4)cc23)c(OC)cc1N(C)CCN(C)C
Ratio IC50 [27]: 8 | pIC50 [1]: 8.09 | pIC50 [2]: 8.66 | pIC50 [3]: 8.96 | pEC50 [4]: 5.75 | Activity [7]: Active | kinact/KI [8]: 20000 M⁻¹ s⁻¹ | inhibition [9]: inactive | Stability [10]: Stable | Stability [11]: Stable | remaining at 1 h, 5 µM [12]: > 75% | remaining at 1 h, 5 µM [13]: > 90% | pKi [14]: 6.83 | pKi [15]: 6.98 | pKi [16]: 7.55 | kinact [17]: 0.003 s⁻¹ | pEC50 [19]: 5.00 to 6.00 | pEC50 [28]: 5.00 to 6.00 | pEC50 [29]: 5.00 to 6.00 | pEC50 [30]: 5.00 to 6.00 | Kinact [22]: 0.14 min⁻¹ | Kinact [23]: 0.5 min⁻¹

— ChEMBL document CHEMBL4007434, “Indazole-Based Covalent Inhibitors To Target Drug-Resistant Epidermal Growth Factor Receptor” (J Med Chem, 2017)
